We go through 14 molecules from patent US5597899A, “Tumor necrosis factor muteins” (Hoffmann-La Roche Inc., priority 1993, dated 1997).

In experiment [1] the test system is human TNFR-p55. Briefly: Solid phase radioligand competition binding assay, E. coli lysates, TNFR-p55. The settings on record: for Dilution of E. coli Lysate for 50% Inhibition of 125I-TNFα Binding (ID50) TNFR-p55: 10-fold serial dilutions 10^-2 to 10^-7, < = inhibition but below 50% at 1:100, << = no measurable inhibition at 1:100; for ID50 TNFR-p55 / ID50 TNFR-p75: ratio = 1 no receptor selectivity, > 1 TNFR-p55 selectivity, < 1 TNFR-p75 selectivity. The procedure:
(§1) After 20 min incubation at room temperature 50 μl of 1M MgCl2, 20 μl of 5 mg/ml DNaseI, 50 μl of 5M NaCl and 50 μl of 10% NP-40 were added and the mixture was further incubated at room temperature for 15 min. 0.5 ml of the lysate clarified by centrifugation at 13'000 rpm for 5 min was subjected to ammonium sulfate precipitation (25%-70% cut). The 70% ammonium sulfat pellet was dissolved in 0.2 ml PBS and analyzed by sodium dodecyl sulfate polyacrylamide gel electrophoresis (SDS-PAGE) to confirm presence and approximate amount of the recombinant proteins.
TNFα was labelled by the Iodogen method (Pierce Chemical Company) to a specific activity of about 10-30 μCi/μg. The volume was 100 μl/well and each lysate dilution was assayed in duplicate or triplicate. After three hours at room temperature the wells were thoroughly washed with PBS and counted in a γ-counter. The results are given in Table 2 for lysates comprising the muteins indicated therein.
On the technique in general: Displacement assays read how much labelled ligand stays bound in the presence of the test substance.

For experiment [2], the system named is human TNFR-p75. Briefly: Solid phase radioligand competition binding assay, E. coli lysates, TNFR-p75. The settings on record: 10-fold serial dilutions 10^-2 to 10^-7, < = inhibition but below 50% at 1:100, << = no measurable inhibition at 1:100. The procedure:
as §1, with “10 ml suspensions of E. coli cells transformed and induced as described in Examples I and II were centrifuged at 4'000 rpm for 10 min and resuspended in 0.9 ml of lysis buffer (10 mM Tris-HCl pH 8.0, 5 mM EDTA, 2 mM PMSF, 10 mM benzamidine, 200 units/ml aprotinine and 0.1 mg/ml lysozyme). After” for “After”
96 well microtiter plates were coated with recombinant human […] TNFR-p75-hγ3 and TNFR-p55-hγ3 fusion proteins (extracellular portion of the receptor fused to the Fc part of human IgG3) at a concentration of 0.3 μg/ml and 0.1 μg/ml, respectively, in phosphate buffered saline (PBS, 100 μl/well, overnight at 4° C.) [Loetscher, H. et al. J. Biol. Chem. 266, 18324-18329 (1991); Lesslauer, W. et al. Eur. J. Immunol. 21, 2883-2886 (1991)]. After blocking with blocking buffer (50 mM Tris pH 7.4, 140 mM NaCl, 5 mM EDTA, 0.02% NAN3, 1% defatted milk powder) the microtiter plate was washed with PBS and incubated in blocking buffer containing 0.1% defatted milk powder with 10 ng/ml human wild-type ^125 I-TNFα and various dilutions of E. coli lysates ranging from 10^-2 to 10^-7 (10-fold serial dilutions). TNFα was labelled by the Iodogen method (Pierce Chemical Company) to a specific activity of about 10-30 μCi/μg. The volume was 100 μl/well and each lysate dilution was assayed in duplicate or triplicate. After three hours at room temperature the wells were thoroughly washed with PBS and counted in a γ-counter. The results are given in Table 2 for lysates comprising the muteins indicated therein.

In the case of R31K: human TNFα mutein R31K, in experiment [1], the “Dilution of E. coli Lysate for 50% Inhibition of 125I-TNFα Binding (ID50) TNFR-p55” value is 3,330 fold and the “ID50 TNFR-p55 / ID50 TNFR-p75” value was determined as 1. In experiment [2], the “Dilution of E. coli Lysate for 50% Inhibition of 125I-TNFα Binding (ID50) TNFR-p75” value is reported as 3,330 fold.

As to Y87Q: human TNFα mutein Y87Q, in experiment [1], the “Dilution of E. coli Lysate for 50% Inhibition of 125I-TNFα Binding (ID50) TNFR-p55” value was less than 100 fold and the “ID50 TNFR-p55 / ID50 TNFR-p75” value is recorded as 1. The “Dilution of E. coli Lysate for 50% Inhibition of 125I-TNFα Binding (ID50) TNFR-p75” value in experiment [2] was less than 100 fold.

For N92R: human TNFα mutein N92R, in experiment [1], the “Dilution of E. coli Lysate for 50% Inhibition of 125I-TNFα Binding (ID50) TNFR-p55” value was 5,000 fold and the “ID50 TNFR-p55 / ID50 TNFR-p75” value was found to be 4. Moreover, in experiment [2], the “Dilution of E. coli Lysate for 50% Inhibition of 125I-TNFα Binding (ID50) TNFR-p75” value is reported as 1,250 fold.

As to N34V: human TNFα mutein N34V, in experiment [1], the “Dilution of E. coli Lysate for 50% Inhibition of 125I-TNFα Binding (ID50) TNFR-p55” value is less than 100 fold and the “ID50 TNFR-p55 / ID50 TNFR-p75” value was more than 1. For the same molecule, in experiment [2], the “Dilution of E. coli Lysate for 50% Inhibition of 125I-TNFα Binding (ID50) TNFR-p75” value is reported as less than 100 fold.

As for D143W: human TNFα mutein D143W, in experiment [1], the “Dilution of E. coli Lysate for 50% Inhibition of 125I-TNFα Binding (ID50) TNFR-p55” value was less than 100 fold and the “ID50 TNFR-p55 / ID50 TNFR-p75” value is listed as less than 1. The “Dilution of E. coli Lysate for 50% Inhibition of 125I-TNFα Binding (ID50) TNFR-p75” value in experiment [2] is given as 100 fold.

As to N34F: human TNFα mutein N34F, in experiment [1], the “Dilution of E. coli Lysate for 50% Inhibition of 125I-TNFα Binding (ID50) TNFR-p55” value turned out to be 100 fold and the “ID50 TNFR-p55 / ID50 TNFR-p75” value is more than 1. Further, the “Dilution of E. coli Lysate for 50% Inhibition of 125I-TNFα Binding (ID50) TNFR-p75” value in experiment [2] is on record as less than 100 fold.

Turning to “Y87T-E104G: human TNFα mutein Y87T-E104G”, in experiment [1], the “Dilution of E. coli Lysate for 50% Inhibition of 125I-TNFα Binding (ID50) TNFR-p55” value is recorded as less than 100 fold and the “ID50 TNFR-p55 / ID50 TNFR-p75” value was found to be 1. The “Dilution of E. coli Lysate for 50% Inhibition of 125I-TNFα Binding (ID50) TNFR-p75” value in experiment [2] was less than 100 fold.

For the molecule I97K: human TNFα mutein I97K, in experiment [1], the “Dilution of E. coli Lysate for 50% Inhibition of 125I-TNFα Binding (ID50) TNFR-p55” value turned out to be 143 fold and the “ID50 TNFR-p55 / ID50 TNFR-p75” value is more than 1.4. Besides, the “Dilution of E. coli Lysate for 50% Inhibition of 125I-TNFα Binding (ID50) TNFR-p75” value in experiment [2] was less than 100 fold.

Turning to Y87K: human TNFα mutein Y87K, in experiment [1], the “Dilution of E. coli Lysate for 50% Inhibition of 125I-TNFα Binding (ID50) TNFR-p55” value was less than 100 fold and the “ID50 TNFR-p55 / ID50 TNFR-p75” value came to 1. Further, in experiment [2], the “Dilution of E. coli Lysate for 50% Inhibition of 125I-TNFα Binding (ID50) TNFR-p75” value is given as less than 100 fold.

Turning to F144L: human TNFα mutein F144L, in experiment [1], the “Dilution of E. coli Lysate for 50% Inhibition of 125I-TNFα Binding (ID50) TNFR-p55” value is 5,000 fold and the “ID50 TNFR-p55 / ID50 TNFR-p75” value was 1. In experiment [2], the “Dilution of E. coli Lysate for 50% Inhibition of 125I-TNFα Binding (ID50) TNFR-p75” value is listed as 5,000 fold.

Turning to N34P: human TNFα mutein N34P, in experiment [1], the “Dilution of E. coli Lysate for 50% Inhibition of 125I-TNFα Binding (ID50) TNFR-p55” value is less than 100 fold and the “ID50 TNFR-p55 / ID50 TNFR-p75” value is given as more than 1. In addition, the “Dilution of E. coli Lysate for 50% Inhibition of 125I-TNFα Binding (ID50) TNFR-p75” value in experiment [2] is reported as less than 100 fold.

For the molecule A145Y: human TNFα mutein A145Y, in experiment [1], the “Dilution of E. coli Lysate for 50% Inhibition of 125I-TNFα Binding (ID50) TNFR-p55” value is recorded as 1,670 fold and the “ID50 TNFR-p55 / ID50 TNFR-p75” value was 0.1. In addition, the “Dilution of E. coli Lysate for 50% Inhibition of 125I-TNFα Binding (ID50) TNFR-p75” value in experiment [2] is recorded as 11,110 fold.

On to N34E: human TNFα mutein N34E, for which, in experiment [1], the “Dilution of E. coli Lysate for 50% Inhibition of 125I-TNFα Binding (ID50) TNFR-p55” value is given as 330 fold and the “ID50 TNFR-p55 / ID50 TNFR-p75” value was more than 3.3. Moreover, in experiment [2], the “Dilution of E. coli Lysate for 50% Inhibition of 125I-TNFα Binding (ID50) TNFR-p75” value is less than 100 fold.

B1: L29S-R32W-S86T: human TNFα mutein L29S-R32W-S86T (protein)
chain: VRSSSRTPSDKPVAHVVANPQAEGQLQWSNRWANALLANGVELRDNQLVVPSEGLYLIYSQVLFKGQGCPSTHVLLTHTISRIAVTYQTKVNLLSAIKSPCQRETPEGAEAKPWYEPIYLGGVFQLEKGDRLSAEINRPDYLDFAESGQVYFGIIAL
Regarding B1, in experiment [1], the “Dilution of E. coli Lysate for 50% Inhibition of 125I-TNFα Binding (ID50) TNFR-p55” value is 2,500 fold and the “ID50 TNFR-p55 / ID50 TNFR-p75” value is given as more than 25. For the same molecule, the “Dilution of E. coli Lysate for 50% Inhibition of 125I-TNFα Binding (ID50) TNFR-p75” value in experiment [2] was less than 100 fold.
